Molecules are shown by their SMILES. Some results are limits rather than exact numbers.

Test [1] concerns the target T1, recombinant human ALK5 (TGF-βR1) protein (Homo sapiens, UniProt P36897).
T1 construct: purchased Life Technologies PR9075A
T1 sequence (P36897 34-503): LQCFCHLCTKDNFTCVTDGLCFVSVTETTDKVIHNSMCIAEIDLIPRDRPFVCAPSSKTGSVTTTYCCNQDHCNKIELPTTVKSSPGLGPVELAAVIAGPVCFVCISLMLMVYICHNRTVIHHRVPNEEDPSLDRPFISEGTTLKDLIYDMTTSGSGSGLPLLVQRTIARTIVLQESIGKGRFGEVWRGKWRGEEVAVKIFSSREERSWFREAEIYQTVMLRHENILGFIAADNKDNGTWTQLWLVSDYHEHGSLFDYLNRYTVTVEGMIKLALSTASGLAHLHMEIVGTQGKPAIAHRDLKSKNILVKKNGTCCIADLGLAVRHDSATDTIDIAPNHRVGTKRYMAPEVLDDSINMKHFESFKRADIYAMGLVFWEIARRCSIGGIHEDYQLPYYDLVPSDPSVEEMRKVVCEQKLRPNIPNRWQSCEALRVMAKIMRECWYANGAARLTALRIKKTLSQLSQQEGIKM
Briefly: Biochemical ALK5 (TGF-βR1) assay to measure pKi (LANCE Ultra ULight kinase assay). The note with it: apparent pKi from pIC50 by Cheng-Prusoff, read-out: ALK5 pKi (converted). The method in brief: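 Dose range 10 μM–25 pM; enzyme + compound 60 min RT; ATP added (5× stock 125 μM, 2 mM DTT); 60 min 37 °C; stop with EDTA + Eu anti-phospho-Topo IIα Thr1342 Ab; TR-FRET ex 320/340, em 665 nm. 4-param pIC50 → pKi (Cheng-Prusoff).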
A general note: Time-resolved FRET reads energy transfer from a long-lived donor to a nearby acceptor.

Test [2] relates to TGF-β-stimulated SMAD3 phosphorylation in BEAS-2B cells. The test can be described thus: Cellular ALK5 potency assay, inhibition of TGF-β stimulated pSMAD3 formation in BEAS-2B cells. As to conditions: Homo sapiens; inhibition of TGF-β stimulated pSMAD3 formation, BEAS-2B cells; read-out: BEAS2B pIC50 (converted). The test is classed as cell-based. The method in brief: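 AlphaLISA pSMAD3 read-out, beads incubated overnight. Human BEAS-2B cells: 1 h compound preincubation (37 °C, 5% CO2), then 30 min TGF-β at 10 ng/mL final, immediate lysis. Values are pIC50 relative to stimulated, compound-free baseline.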

On to `Cc1cccc(-c2[nH]cnc2-c2ccc3ncc(C4=CCCC(N)C4)cc3c2)n1` (stereo not shown) [Compound 531, 3-[6-[5-(6-methyl-2-pyridyl)-1H-imidazol-4-yl]-3-quinolyl]cyclohex-3-en-1-amine], for which the Ki in test [1] was below 0.0316 nM. Moreover, the IC50 in test [2] was below 20 nM.
As for `Cc1cccc(-c2[nH]cnc2-c2ccc3ncc(-c4ncc(C(=O)OC5CCNCC5)cn4)cc3c2)n1` [Compound 1101, 4-piperidyl 2-[6-[5-(6-methyl-2-pyridyl)-1H-imidazol-4-yl]-3-quinolyl]pyrimidine-5-carboxylate], in test [1], the Ki was 0.0398 to 0.316 nM. For the same compound, in test [2], the IC50 was 25.1 to 158 nM.
Taken in the same sequence, the figures for `Cc1cccc(-c2n[nH]cc2-c2ccc3ncc(-c4cn5c(n4)CNCC5)cc3n2)n1` [Compound 75, 2-(3-(6-Methylpyridin-2-yl)-1H-pyrazol-4-yl)-7-(5,6,7,8-tetrahydroimidazo[1,2-a]pyrazin-2-yl)-1,5-naphthyridine] were below 0.0316 nM and 25.1 to 158 nM.
Taken in the same sequence, the figures for `Cc1cccc(-c2n[nH]cc2-c2ccc3ncc(N4CCC[C@H](N(C)C)C4)cc3n2)n1` [Compound 492, (3S)-N,N-dimethyl-1-[6-[3-(6-methyl-2-pyridyl)-1H-pyrazol-4-yl]-1,5-naphthyridin-3-yl]piperidin-3-amine] were 0.0398 to 0.316 nM and 25.1 to 158 nM.
For the compound `Cc1cccc(-c2[nH]cnc2-c2ccc3nccc(C4CCCN4)c3c2)n1` (stereo not shown) [Compound 154, 6-[5-(6-methyl-2-pyridyl)-1H-imidazol-4-yl]-4-pyrrolidin-2-yl-quinoline], the Ki in test [1] is 3.98 to 31.6 nM. The IC50 in test [2] is 200 to 1260 nM.
Taken in the same sequence, the figures for `Cc1cccc(-c2[nH]cnc2-c2ccc3ncc(-c4cnc(C(=O)O)nc4)cc3c2)n1` [Compound 1142, 5-[6-[5-(6-methyl-2-pyridyl)-1H-imidazol-4-yl]-3-quinolyl]pyrimidine-2-carboxylic acid] were 0.398 to 3.16 nM and 1580 to 10000 nM.
Taken in the same sequence, the figures for `Cc1cccc(-c2n[nH]cc2-c2ccc3ncc(-c4ncc5n4CCN5)cc3n2)n1` [Compound 641, 7-(2,3-dihydro-1H-imidazo[1,5-a]imidazol-5-yl)-2-[3-(6-methyl-2-pyridyl)-1H-pyrazol-4-yl]-1,5-naphthyridine] were 0.0398 to 0.316 nM and 25.1 to 158 nM.
For the compound `Cc1cccc(-c2[nH]cnc2-c2ccc3ncc(-c4ccc(C(=O)OCCN5C[C@@H](C)N[C@@H](C)C5)cn4)cc3c2)n1` [Compound 1168, 2-[rac-(3S,5R)-3,5-dimethylpiperazin-1-yl]ethyl 6-[6-[5-(6-methyl-2-pyridyl)-1H-imidazol-4-yl]-3-quinolyl]pyridine-3-carboxylate], the Ki in test [1] is 0.0398 to 0.316 nM. In test [2], the IC50 is 25.1 to 158 nM.
The matching figures for `Cc1cccc(-c2[nH]cnc2-c2ccc3ncc(NCCN4CCCC4)cc3c2)n1` [Compound 30, 6-[5-(6-methyl-2-pyridyl)-1H-imidazol-4-yl]-N-(2-pyrrolidin-1-ylethyl)quinolin-3-amine]: 0.0398 to 0.316 nM and 25.1 to 158 nM.
Regarding `CNC(=O)[C@@H]1CN(c2cnc3ccc(-c4nc[nH]c4-c4cccc(C)n4)cc3c2)CCN1` [Compound 384, (2S)-N-methyl-4-[6-[5-(6-methyl-2-pyridyl)-1H-imidazol-4-yl]-3-quinolyl]piperazine-2-carboxamide], the Ki in test [1] is 0.0398 to 0.316 nM. In test [2], the IC50 was 200 to 1260 nM.
Regarding `Cc1cccc(-c2nnn(Cc3ccccc3)c2-c2ccc3ncc(N4CCC(N(C)C)C4)cc3c2)n1` (stereo not shown) [Compound 191, 1-[6-[3-benzyl-5-(6-methyl-2-pyridyl)triazol-4-yl]-3-quinolyl]-N,N-dimethyl-pyrrolidin-3-amine], the Ki in test [1] is 0.0398 to 0.316 nM. In test [2], the IC50 was 25.1 to 158 nM.
Taken in the same sequence, the figures for `Cc1cccc(-c2[nH]cnc2-c2ccc3ncc(-c4ncc(C5=CCNCC5)s4)cc3c2)n1` [Compound 1084, 2-[6-[5-(6-methyl-2-pyridyl)-1H-imidazol-4-yl]-3-quinolyl]-5-(1,2,3,6-tetrahydropyridin-4-yl)thiazole] were 0.0398 to 0.316 nM and below 20 nM.
The matching figures for `Cc1cccc(-c2n[nH]cc2-c2ccc3ncc(-c4nc5n(n4)CCNC5)cc3n2)n1` [Compound 67, 2-[3-(6-methyl-2-pyridyl)-1H-pyrazol-4-yl]-7-(5,6,7,8-tetrahydro-[1,2,4]triazolo[1,5-a]pyrazin-2-yl)-1,5-naphthyridine]: 0.0398 to 0.316 nM and 25.1 to 158 nM.
Taken in the same sequence, the figures for `COc1ncccc1-c1cnc2ccc(-c3c[nH]nc3-c3cccc(C)n3)nc2c1` [Compound 61, 7-(2-methoxy-3-pyridyl)-2-[3-(6-methyl-2-pyridyl)-1H-pyrazol-4-yl]-1,5-naphthyridine] were 0.0398 to 0.316 nM and 25.1 to 158 nM.
`Cc1cccc(-c2n[nH]cc2-c2ccc3ncc(N4CCN(CC#N)CC4)cc3n2)n1` [Compound 299, 2-[4-[6-[3-(6-methyl-2-pyridyl)-1H-pyrazol-4-yl]-1,5-naphthyridin-3-yl]piperazin-1-yl]acetonitrile]: the Ki in test [1] was below 0.0316 nM. In addition, the IC50 in test [2] is below 20 nM.
The matching figures for `Cc1cccc(-c2[nH]cnc2-c2ccc3ncc(-c4ccc(C(=O)O[C@H]5CCNC5)cn4)cc3c2)n1` [Compound 1119, [(3S)-pyrrolidin-3-yl] 6-[6-[5-(6-methyl-2-pyridyl)-1H-imidazol-4-yl]-3-quinolyl]pyridine-3-carboxylate]: 0.0398 to 0.316 nM and 25.1 to 158 nM.
For `Cc1cccc(-c2nnn(Cc3ccccc3)c2-c2ccc3ncc(-c4c[nH]nc4C(F)(F)F)cc3n2)n1` [Compound 288, 2-[3-benzyl-5-(6-methyl-2-pyridyl)triazol-4-yl]-7-[3-(trifluoromethyl)-1H-pyrazol-4-yl]-1,5-naphthyridine], the Ki in test [1] is 0.398 to 3.16 nM. Moreover, in test [2], the IC50 was 25.1 to 158 nM.
On to `Cc1cc(-c2cnc3ccc(-c4c[nH]nc4-c4cccc(C)n4)nc3c2)ccn1` [Compound 454, 7-(2-methyl-4-pyridyl)-2-[3-(6-methyl-2-pyridyl)-1H-pyrazol-4-yl]-1,5-naphthyridine], for which the Ki in test [1] is below 0.0316 nM. In test [2], the IC50 was below 20 nM.
Taken in the same sequence, the figures for `CCc1cccc(-c2n[nH]cc2-c2ccc3ncc(N4CCC(NC)CC4)cc3n2)n1` [Compound 377, 1-[6-[3-(6-ethyl-2-pyridyl)-1H-pyrazol-4-yl]-1,5-naphthyridin-3-yl]-N-methyl-piperidin-4-amine] were below 0.0316 nM and 25.1 to 158 nM.
With `Cc1cccc(-c2[nH]cnc2-c2ccc3ncc(-c4csc(C(=O)OCCN5CCNCC5)n4)cc3c2)n1` [Compound 1096, 2-piperazin-1-ylethyl 4-[6-[5-(6-methyl-2-pyridyl)-1H-imidazol-4-yl]-3-quinolyl]thiazole-2-carboxylate], the Ki in test [1] is 0.0398 to 0.316 nM. The IC50 in test [2] was 25.1 to 158 nM.
The matching figures for `Cc1cccc(-c2n[nH]cc2-c2ccc3ncc(-c4c[nH]cn4)cc3n2)n1` [Compound 157, 7-(1H-imidazol-4-yl)-2-[3-(6-methyl-2-pyridyl)-1H-pyrazol-4-yl]-1,5-naphthyridine]: 0.0398 to 0.316 nM and 25.1 to 158 nM.
The matching figures for `Cc1cccc(-c2[nH]cnc2-c2ccc3nccc(C(=O)O[C@H]4C[C@H](N)C4)c3c2)n1` [Compound 1107, (3-aminocyclobutyl) 6-[5-(6-methyl-2-pyridyl)-1H-imidazol-4-yl]quinoline-4-carboxylate]: 0.398 to 3.16 nM and 25.1 to 158 nM.
For `Cc1cccc(-c2n[nH]cc2-c2ccc3ncc(N4CCCN(CC5CCCN5)CC4)cc3n2)n1` (stereo not shown) [Compound 274, 2-[3-(6-methyl-2-pyridyl)-1H-pyrazol-4-yl]-7-[4-(pyrrolidin-2-ylmethyl)-1,4-diazepan-1-yl]-1,5-naphthyridine], the Ki in test [1] was 0.0398 to 0.316 nM. Moreover, the IC50 in test [2] is 200 to 1260 nM.
Turning to `Cc1cccc(-c2[nH]cnc2-c2ccc3ncc(C4=CCC(NC(=O)N5CCNCC5)CC4)cc3c2)n1` (stereo not shown) [Compound 153, N-[4-[6-[5-(6-methyl-2-pyridyl)-1H-imidazol-4-yl]-3-quinolyl]cyclohex-3-en-1-yl]piperazine-1-carboxamide], in test [1], the Ki was 0.0398 to 0.316 nM. Also, the IC50 in test [2] was 200 to 1260 nM.
For `Cc1cccc(-c2n[nH]cc2-c2ccc3ncc(-c4nc(CCN)c(C)[nH]4)cc3n2)n1` [Compound 671, 2-[5-methyl-2-[6-[3-(6-methyl-2-pyridyl)-1H-pyrazol-4-yl]-1,5-naphthyridin-3-yl]-1H-imidazol-4-yl]ethanamine], in test [1], the Ki was 0.0398 to 0.316 nM. For the same compound, the IC50 in test [2] is 200 to 1260 nM.
`Cc1cccc(-c2[nH]cnc2-c2ccc3ncc(-c4cccc(NC5CCNCC5)n4)cc3c2)n1` [Compound 450, 6-[6-[5-(6-methyl-2-pyridyl)-1H-imidazol-4-yl]-3-quinolyl]-N-(4-piperidyl)pyridin-2-amine]: in test [1], the Ki was 0.0398 to 0.316 nM. In test [2], the IC50 is 25.1 to 158 nM.

Values taken from patent US11590116B2 (THERAVANCE BIOPHARMA R&D IP, LLC, priority 2019, dated 2023).
